From patent publication US9387220B2, “Method for inducing hepatocyte proliferation and uses thereof” (CAN-FITE BIOPHARMA LTD., priority 2007, dated 2016)
Like-named read-outs stand apart in the source and are kept apart here.

Key:
[1] = biological target: T1, A2B adenosine receptor (Homo sapiens, UniProt P29275); experiment: Binding affinity to adenosine A2B receptor
T1 sequence (P29275 1-332): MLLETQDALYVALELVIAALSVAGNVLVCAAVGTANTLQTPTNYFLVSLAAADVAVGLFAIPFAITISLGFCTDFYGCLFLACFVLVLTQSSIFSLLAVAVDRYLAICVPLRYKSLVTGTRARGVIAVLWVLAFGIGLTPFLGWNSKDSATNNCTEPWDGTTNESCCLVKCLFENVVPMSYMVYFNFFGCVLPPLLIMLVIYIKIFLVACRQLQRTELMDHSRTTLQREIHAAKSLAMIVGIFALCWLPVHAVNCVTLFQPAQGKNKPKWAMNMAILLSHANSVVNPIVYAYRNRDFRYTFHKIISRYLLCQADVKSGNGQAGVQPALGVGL

[2] = Human studies with orally-administered Cl-IB-MECA, plasma half life; assay type: in vivo; details: oral administration, read-out: half life in human plasma from peak concentration
Description: An effective amount of an active agent may also be determined based on human PK studies. […] On the basis of said human trials twice daily administration appears to be a preferred administration regiment. […] On the basis of this human data, the administration regiment in human subjects may preferably be once or twice daily although other regiments cannot be excluded.

[3] = tested on: hepatocytes; experiment: Hepatocyte proliferation of regenerated liver after partial hepatectomy; assay type: in vivo, rat; details: rats, 70% hepatectomy, 100 μg/kg orally TID; control group 30%; FIG. 1
[4] = tested on: liver; experiment: Serum levels of liver enzymes ALT and AST after partial hepatectomy with ischemia/reperfusion; assay type: in vivo, rat
[5] = tested on: hepatocytes; experiment: PCNA staining of hepatocytes after partial hepatectomy; assay type: in vivo, rat; details: rats, 48 hours after partial hepatectomy; FIG. 5B
[6] = tested on: liver; experiment: Liver regeneration (liver weight) after partial hepatectomy; assay type: in vivo, rat; details: rats, 24 and 48 hours after partial hepatectomy; FIG. 6
Protocol: Male Wistar rats (275-300 g) were fasted 12 h before the procedure. The rats were anaesthetized with Ketamin (45 mg/kg) and Xylazine (5 mg/kg). Laparatomy was performed via a sub costal, bilateral incision. The main portal pedicle to the total liver was clamped for a period of 10 minutes, during which, a 70% hepatectomy was performed. After 10 minutes of ischemia (in the course of the hepatectomy), blood flow was restored by de-clamping.
Rats underwent laparatomy and the main portal pedicle to the total liver was clamped for a period of 10 minutes, during which a 70% hepatectomy was performed. After 10 minutes of ischemia blood flow was restored by de-clamping.
Livers were collected 24 and 48 hours after the partial […]. The growth of residual liver lobes was assessed using the following equation: […]
A is the estimated total liver weight before hepatectomy (3.4% of a rat's total weight),
B is the weight of liver resected during the hepatectomy, and
C is the weight of the regenerated liver at the end of the study.

[7] = oral administration; cited from earlier work
[8] = mice; cited from earlier work

Structure (SMILES) | IC50 [1] | Ki [1] | half-life [2] | level of regeneration (hepatocyte proliferation) [3] | ALT serum level vs control group ([4]; rats, 2, 4 and 48 hours after partial hepatectomy, 100 μg/kg orally TID, FIG. 2A) | AST serum level vs control group ([4]; rats, 2, 4 and 48 hours after partial hepatectomy, 100 μg/kg orally TID, FIG. 2B) | serum levels of liver enzymes (AST and ALT) vs vehicle and untreated rats ([4]; rats, partial hepatectomy, further assay, FIG. 3) | number of PCNA positive hepatocytes vs vehicle [5] | liver weight (% of regeneration) vs vehicle [6] | IC50 ([1]; read-out: IC50) | Ki ([1]; read-out: Ki) | half life in human plasma from peak concentration [7] | half life [8]
CNC(=O)[C@H]1O[C@@H](n2cnc3c(NCc4cccc(I)c4)nc(Cl)nc32)[C@H](O)[C@@H]1O [Cl-IB-MECA, 2-chloro-N^6-(3-iodobenzyl)-adenosine-5′-N-methyl-uronamide] | No activity | No activity | 12 to 14 h | 45.1% | significantly decreased | significantly decreased | reduction | significantly increased | increase | – | – | – | –
CNC(=O)[C@H]1O[C@@H](n2cnc3c(NCc4cccc(I)c4)ncnc32)[C@H](O)[C@@H]1O [IB-MECA, 1-deoxy-1-{6-[({3-iodophenyl}methyl)amino]-9H-purine-9-yl}-N-methyl-β-D-ribofuranuronamide] | – | – | – | – | – | – | – | – | – | 47.6 µM | 42.3 µM | 8 to 10 h | 1.5 h
